Tests used:
[1] = biological target: T1, Aromatase (Homo sapiens, UniProt P11511); assay: Inhibition of Cytochrome P450 19A1 at 20 ug/mL; None; conditions: at 20 µg/mL
T1 sequence (P11511 whole entry): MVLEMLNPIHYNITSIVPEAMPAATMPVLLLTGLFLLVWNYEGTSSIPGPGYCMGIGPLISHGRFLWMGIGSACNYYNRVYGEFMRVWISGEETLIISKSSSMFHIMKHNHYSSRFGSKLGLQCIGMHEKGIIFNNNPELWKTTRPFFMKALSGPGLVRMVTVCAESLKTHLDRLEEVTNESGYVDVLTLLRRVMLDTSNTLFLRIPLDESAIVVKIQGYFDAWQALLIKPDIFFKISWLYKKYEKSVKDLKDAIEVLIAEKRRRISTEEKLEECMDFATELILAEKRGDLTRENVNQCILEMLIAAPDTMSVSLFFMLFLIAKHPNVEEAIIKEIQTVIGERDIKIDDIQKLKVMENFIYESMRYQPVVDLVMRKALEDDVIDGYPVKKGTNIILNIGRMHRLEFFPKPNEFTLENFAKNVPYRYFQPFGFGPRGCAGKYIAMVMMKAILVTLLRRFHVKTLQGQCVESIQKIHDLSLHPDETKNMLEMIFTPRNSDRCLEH

[2] = biological target: T2, Cholesterol side-chain cleavage enzyme, mitochondrial (Bos taurus, UniProt P00189); assay: Inhibition of bovine adrenal desmolase at 50 ug/mL; None; conditions: cattle; at 50 µg/mL
T2 sequence (P00189 whole entry): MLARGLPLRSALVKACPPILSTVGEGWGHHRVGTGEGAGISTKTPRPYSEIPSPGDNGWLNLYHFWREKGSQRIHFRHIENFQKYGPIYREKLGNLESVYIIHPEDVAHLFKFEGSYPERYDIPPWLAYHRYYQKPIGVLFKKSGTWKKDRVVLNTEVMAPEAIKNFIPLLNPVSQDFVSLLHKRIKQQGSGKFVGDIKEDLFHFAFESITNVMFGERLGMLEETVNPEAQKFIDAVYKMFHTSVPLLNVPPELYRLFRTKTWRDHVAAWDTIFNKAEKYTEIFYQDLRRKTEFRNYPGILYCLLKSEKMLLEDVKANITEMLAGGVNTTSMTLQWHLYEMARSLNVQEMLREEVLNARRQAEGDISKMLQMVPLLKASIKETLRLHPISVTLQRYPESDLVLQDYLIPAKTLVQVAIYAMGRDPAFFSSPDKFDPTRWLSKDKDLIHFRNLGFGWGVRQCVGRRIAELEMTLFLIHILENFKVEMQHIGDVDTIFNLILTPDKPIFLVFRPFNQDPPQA

[3] = biological target: T3, Cytochrome P450 11A1 (desmolase, cholesterol side-chain cleavage enzyme) (Bos taurus, UniProt P00189); assay: Inhibition of bovine adrenal desmolase cytochrome P450 11A1 at 50 ug/mL; conditions: cattle
T3 sequence (P00189 whole entry): T2 sequence (P00189 whole entry)

[4] = biological target: T1, Aromatase; assay: Inhibition of Cytochrome P450 19A1 at 20 ug/mL

CCC1(c2cc[n+]([O-])cc2)CCC(=O)NC1=O (configuration not stated)
Inhibition [1]: Not Active | Inhibition [2]: Not Active

CCC1(c2ccncc2)CCC(=O)N(N)C1=O (configuration not stated)
inhibition at 50 ug/mL [3]: 38% | inhibition at 20 µg/mL [4]: 27%

CCC1(c2ccncc2)CCC(=O)NC1=O (configuration not stated) [ROGLETIMIDE]
Inhibition [2]: Not Active

CCC1(c2c(F)c(F)nc(F)c2F)CCC(=O)NC1=O (configuration not stated)
inhibition at 20 µg/mL [4]: 25% | Inhibition [2]: Not Active

Reference: ChEMBL document CHEMBL1123108 (J Med Chem, 1985)
